Measured values: US11826466B2, “Bendamustine solution formulations” (Navinta, LLC, priority 2016, dated 2023)
Counter-ions that a name gives are not always drawn.

Experiments:
[1] = Solubility of Bendamustine Hydrochloride in DMA-Water Mixture; format: physicochemical; conditions: organic solvent or mixture, thermodynamic from solid, 5° C.
Protocol: To 10 ml of DMA-water mixture, excess (˜2-3 g) of Bendamustine Hydrochloride hydrate was added and the mixture was stirred for 24 hr while keeping in a constant temperature bath. After 24 hr, the mixture was centrifuged to remove the undissolved solid and the supernatant was filtered through a 0.2 micron filter. The clear filtrate was assayed.

[2] = Solubility of Bendamustine Hydrochloride in DMA
[3] = room temperature; reported in U.S. Pat. No. 8,344,006; cited from earlier work

SMILES | solubility at 24 h ([1]; DMA:Water 60:40) [mg/mL] | solubility at 24 h ([1]; DMA:Water 80:20) [mg/mL] | solubility at 24 h ([1]; DMA:Water 90:10) [mg/mL] | solubility at 24 h ([1]; DMA:Water 95:5) [mg/mL] | solubility at 24 h ([1]; DMA:Water 97:3) [mg/mL] | solubility at 24 h ([1]; DMA) [mg/mL] | concentration of solutions in DMA made by adding water to DMA ([2]; DMA with added water) | solubility ([2]; DMA, 2 °C, organic solvent or mixture) [mg/mL] | solubility in DMA [3]
Cn1c(CCCC(=O)O)nc2cc(N(CCCl)CCCl)ccc21 [Bendamustine Hydrochloride hydrate] | 67 | 169 | 201 | 114 | 116 | 72 | up to 200 mg/mL | ~65 | 
Cn1c(CCCC(=O)O)nc2cc(N(CCCl)CCCl)ccc21 [Bendamustine Hydrochloride] |  |  |  |  |  |  |  |  | about 56 mg/mL
